According to publication PMC10094297, “The Attenuation of Insulin/IGF-1 Signaling Pathway Plays a Crucial Role in the Myo-Inositol-Alleviated Aging in Caenorhabditis elegans” (International Journal of Molecular Sciences, 2023):

How the values were obtained:
PI3K p110α = biological target: T1, PI3K p110α (Homo sapiens, UniProt P42336); assay: PI3 Kinase Activity/Inhibitor Assay Kit (Millipore […]-493), competitive biotinylated-PIP3/GRP1 ELISA, PIP2 substrate; format: biochemical
T1 construct: gene PIK3CA
T1 sequence (P42336 whole entry): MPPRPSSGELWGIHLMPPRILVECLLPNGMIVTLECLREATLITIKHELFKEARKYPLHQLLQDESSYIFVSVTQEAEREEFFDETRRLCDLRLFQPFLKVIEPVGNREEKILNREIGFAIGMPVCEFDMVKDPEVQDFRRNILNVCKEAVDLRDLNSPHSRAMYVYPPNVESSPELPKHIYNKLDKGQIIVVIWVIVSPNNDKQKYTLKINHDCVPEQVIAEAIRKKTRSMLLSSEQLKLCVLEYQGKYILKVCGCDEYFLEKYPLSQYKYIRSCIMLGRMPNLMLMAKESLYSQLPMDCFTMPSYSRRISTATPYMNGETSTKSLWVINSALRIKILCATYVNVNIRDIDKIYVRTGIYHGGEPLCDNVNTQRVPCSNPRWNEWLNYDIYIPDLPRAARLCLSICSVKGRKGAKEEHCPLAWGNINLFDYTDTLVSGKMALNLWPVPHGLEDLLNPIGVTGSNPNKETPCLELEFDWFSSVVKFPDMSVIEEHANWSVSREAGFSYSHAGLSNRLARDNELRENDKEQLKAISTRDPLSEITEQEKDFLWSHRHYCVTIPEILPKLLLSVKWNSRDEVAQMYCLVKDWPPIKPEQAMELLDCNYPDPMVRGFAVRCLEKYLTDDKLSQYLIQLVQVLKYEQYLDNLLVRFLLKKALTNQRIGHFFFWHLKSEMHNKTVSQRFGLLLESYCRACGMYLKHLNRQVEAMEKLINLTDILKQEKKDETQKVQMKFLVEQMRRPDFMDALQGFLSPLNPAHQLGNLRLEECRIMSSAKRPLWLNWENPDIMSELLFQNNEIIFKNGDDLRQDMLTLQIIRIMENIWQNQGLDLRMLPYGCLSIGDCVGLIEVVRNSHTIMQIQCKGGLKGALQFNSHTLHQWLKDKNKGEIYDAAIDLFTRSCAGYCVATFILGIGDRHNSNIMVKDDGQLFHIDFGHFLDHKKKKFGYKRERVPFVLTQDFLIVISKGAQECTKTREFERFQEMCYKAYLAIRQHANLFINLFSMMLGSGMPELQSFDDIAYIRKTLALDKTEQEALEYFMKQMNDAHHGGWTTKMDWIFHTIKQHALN

PI3K p110β = biological target: T2, PI3K p110β (Homo sapiens, UniProt P42338); assay: as above; format: biochemical
T2 construct: gene PIK3CB
T2 sequence (P42338 whole entry): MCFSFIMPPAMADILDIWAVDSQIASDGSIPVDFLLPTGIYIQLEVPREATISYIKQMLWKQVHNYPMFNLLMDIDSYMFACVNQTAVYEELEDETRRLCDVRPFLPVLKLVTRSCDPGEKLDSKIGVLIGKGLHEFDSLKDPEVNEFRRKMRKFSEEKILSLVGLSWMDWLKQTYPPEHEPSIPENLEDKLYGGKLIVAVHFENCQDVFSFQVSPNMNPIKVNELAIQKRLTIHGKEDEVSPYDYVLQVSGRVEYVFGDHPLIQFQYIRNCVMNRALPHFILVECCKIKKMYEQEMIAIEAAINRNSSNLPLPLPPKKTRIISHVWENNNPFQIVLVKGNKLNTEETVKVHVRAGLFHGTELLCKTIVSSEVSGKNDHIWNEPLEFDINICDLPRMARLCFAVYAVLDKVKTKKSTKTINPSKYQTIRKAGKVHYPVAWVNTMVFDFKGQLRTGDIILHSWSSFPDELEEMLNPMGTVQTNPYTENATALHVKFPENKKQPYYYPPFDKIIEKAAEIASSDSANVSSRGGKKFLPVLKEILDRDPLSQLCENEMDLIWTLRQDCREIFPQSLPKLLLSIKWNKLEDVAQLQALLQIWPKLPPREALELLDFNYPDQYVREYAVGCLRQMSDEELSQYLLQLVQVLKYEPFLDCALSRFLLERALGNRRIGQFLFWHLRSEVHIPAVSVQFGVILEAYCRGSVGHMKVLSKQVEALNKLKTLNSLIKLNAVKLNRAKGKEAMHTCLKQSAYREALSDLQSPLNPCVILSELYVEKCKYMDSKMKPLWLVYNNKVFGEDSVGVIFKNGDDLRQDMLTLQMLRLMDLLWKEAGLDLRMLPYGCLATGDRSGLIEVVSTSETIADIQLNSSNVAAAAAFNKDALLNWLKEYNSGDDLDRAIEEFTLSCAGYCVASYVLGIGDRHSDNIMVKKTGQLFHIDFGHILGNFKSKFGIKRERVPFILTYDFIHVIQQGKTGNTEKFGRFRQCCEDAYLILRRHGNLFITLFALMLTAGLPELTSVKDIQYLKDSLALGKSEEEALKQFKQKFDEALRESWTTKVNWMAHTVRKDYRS

## O[C@H]1[C@H](O)[C@@H](O)[C@H](O)[C@@H](O)[C@H]1O [MI, Myo-inositol]
PI3K p110α
  IC50: 90.2 µM
PI3K p110β
  IC50: 21.7 µM
